For the assay, the target named is RagB-RagC heterodimer (RagB monitored) (Homo sapiens, UniProt Q5VZM2). Description: GDP dissociation assay. The settings on record: GDP on wild-type RagB with Rag^X partner; not altered by FLCN-FNIP. Type of assay: binding.
RagB-RagC heterodimer (RagB monitored), sequence (Q5VZM2 whole entry): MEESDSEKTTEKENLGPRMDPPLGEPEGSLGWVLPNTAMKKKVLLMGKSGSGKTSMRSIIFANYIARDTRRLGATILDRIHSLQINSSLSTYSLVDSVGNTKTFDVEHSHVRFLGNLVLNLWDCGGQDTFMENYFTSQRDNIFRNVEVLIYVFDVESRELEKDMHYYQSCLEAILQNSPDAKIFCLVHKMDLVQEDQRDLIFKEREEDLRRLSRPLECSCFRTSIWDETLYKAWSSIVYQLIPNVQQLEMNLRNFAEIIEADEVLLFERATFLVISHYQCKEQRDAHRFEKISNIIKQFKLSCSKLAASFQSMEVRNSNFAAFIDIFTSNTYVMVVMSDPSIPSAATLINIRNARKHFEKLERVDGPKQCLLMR
RagB-RagC heterodimer (RagB monitored), sequence (Q9HB90 2-399 D181N partner): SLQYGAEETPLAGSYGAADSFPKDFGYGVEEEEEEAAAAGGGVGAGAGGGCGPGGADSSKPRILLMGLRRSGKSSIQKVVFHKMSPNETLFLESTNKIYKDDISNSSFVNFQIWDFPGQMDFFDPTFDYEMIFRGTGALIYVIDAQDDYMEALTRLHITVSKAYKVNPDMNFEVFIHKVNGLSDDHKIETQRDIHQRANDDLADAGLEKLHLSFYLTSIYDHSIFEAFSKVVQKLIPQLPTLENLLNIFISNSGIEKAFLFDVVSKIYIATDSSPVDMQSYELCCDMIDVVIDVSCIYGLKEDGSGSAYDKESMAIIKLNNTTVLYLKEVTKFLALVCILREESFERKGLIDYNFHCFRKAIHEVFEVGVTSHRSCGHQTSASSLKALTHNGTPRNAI

As to `Nc1nc2c(ncn2[C@@H]2O[C@H](COP(=O)(O)OP(=O)(O)O)[C@@H](O)[C@H]2O)c(=O)[nH]1` [GDP], the GDP dissociation assay result was “did not stimulate or inhibit the dissociation of GDP from RagB or RagC”.

These data come from paper PMC3867817 (Molecular cell, 2013).
